Data set [1] deals with Escherichia coli Nissle 1917 (EcN). The experiment in a line: In vitro tracer uptake into E. coli Nissle culture (gamma counter). The class given is cell-based. Conditions: 0.925 MBq tracer, culture grown at 37° C. for 4 hours.
Method: An overnight culture of EcN was diluted 1:50 into 5 ml fresh LB-broth, supplemented with 0.925 MBq (25 μCi) of [^18F]-FDG or [^18F]-FEAU. The cultures were grown at 37° C. for 4 hours. The bacteria were harvested by centrifugation, washed twice with PBS and the radioactivity in the pelleted bacteria and medium was measured in a gamma counter (Packard, United Technologies, Downers Grove, Ill.).
For data set [2], the system named is E. coli Nissle. The experiment in a line: [18F]-FEAU uptake by tissue sampling, tumor-to-organ radioactivity ratios. The class given is in vivo, mice. Conditions: after EcN administration, p<0.02. As to the method: In vivo uptake of [^18F]-FEAU was measured in a separate experiment by measurement of tumor-to-organ (liver, spleen, heart and lung) [^18F]-FEAU radioactivity ratios via tissue sampling. […] Euthanized mice were rinsed with 100% ethanol prior to tissue removal. Organs, including liver, lung, spleen and heart, were sampled and weighed before radioactivity was measured. Tumor tissue was weighed and homogenized in 1 ml PBS. Serial dilutions of the homogenized sample were plated on L-arabinose containing LB-agar plates. […] The remaining tumor suspension and organ samples were assayed for radioactivity in a gamma counter (Packard, United Technologies, Downers Grove, Ill.). [^18F]-FEAU radioactivity (% ID/g) in the samples was determined and tumor-to-organ ratios calculated. To assess the correlation between radioactivity and scintillation counter measurements, the Pearson correlation coefficient was computed.

In data set [3] the test system is E. coli Nissle. Conditions: for tumor-to-organ ratio, heart / tumor-to-organ ratio, liver / tumor-to-organ ratio, muscle: PET.
Method: The in vivo uptake of [^18F]-FDG and [^18F]-FEAU by administered EcN bacteria was studied using a mouse tumor model and imaged by positron emission tomography (PET) scanning.
At two weeks post tumor cell implantation (tumor diameter >5 mm), the EcN bacteria (4×10^6 CFU in 100 μl PBS) were administered systemically by lateral tail vein injection into the tumor bearing mice. Control mice were injected with 100 μl PBS via tail vein.
Prior to tracer administration, [^18F]-FDG or [^18F]-FEAU, the animals were starved 12 h and kept under anesthesia between tracer injection and imaging. In the [^18F]-FDG experimental group of mice (n=6 for each time point), each animal was injected intravenously by tail vein with 9.25 MBq (250 μCi) of [^18F]-FDG at either 16 or 72 hours after administration of EcN. Control mice received 9.25 MBq (250 μCi) of [^18F]-FDG following administration of PBS. [^18F]-FDG FDG PET scanning was performed 1 h after tracer administration using a 10 minute list mode acquisition.
In the [^18F]-FEAU experimental group of mice (n=8 for each time point), each animal was injected intravenously by tail vein with 9.25 MBq (250 μCi) of [^18F]-FEAU at either 16 or 72 hours after administration of EcN. Control mice received 9.25 MBq (250 μCi) of [^18F]-FEAU following administration of 100 μl PBS. [^18F]-FDG PET scanning was performed 2 h after tracer administration using a 10 minute list mode acquisition.
Imaging was performed using a Focus 120 microPET™ dedicated small-animal PET scanner (Concorde Microsystems Inc, Knoxyille, Tenn.). Mice were maintained under 2% isofluorane anesthesia with an oxygen flow rate of 2 l/min during the entire scanning period. Three-dimensional (3D) list-mode data were acquired using an energy window of 350-700 keV for ^18F and 410-580 keV for ^124I, respectively and a coincidence timing window of 6 ns. […] Transverse images were reconstructed by filtered back-projection using a ramp filter with a cut-off frequency equal to the Nyquist frequency in a 128×128×94matrix comprised of 0.866×0.866×0.866-mm voxels. The image data were corrected for (a) non-uniformity of scanner response using a uniform cylinder source-based normalization, (b) dead time count losses using a singles count rate-based global correction, (c) physical decay to the time of injection, and (d) the ^124I branching ratio. There was no correction applied for attenuation, scatter or partial-volume averaging. The count rates in the reconstructed images were converted to activity concentration (% of injected dose per gram of tissue, % ID/g) using a system calibration factor (μCi/ml/cps/voxel) derived from imaging of a rat-size phantom filled with a uniform aqueous solution of ^18F.
PET image analysis was performed using ASIPro™ software (Concorde Microsystems Inc., Knoxyille, Tenn.). For each PET scan, regions of interest (ROIs) were manually drawn over tumor, liver, skeletal muscle and heart.
Data set [4] has as its system E. coli Nissle. Conditions: in the absence of bacteria.
From the text: Using the data obtained in Example 2 for in vivo [^18F]-FEAU uptake, tumor radioactivity (% ID/g), corrected for background radioactivity, was plotted against the number of bacterial colony forming units per gram for each of the tumors imaged.
Data set [5] has as its system E. coli Nissle. The experiment in a line: In vivo [124I]-FIAU PET distribution over time in 4T1 xenograft mice. As for the experimental part:
Mice bearing 4T1 xenografts were generated as described in Example 2. Prior to intravenous administration of ^[124I]-FIAU, three mice were injected with EcN-bacteria and 3 mice with PBS (control). 37 MBq (1000 μCi) of [^124I]-FIAU was injected into each animal intravenously 72 h after bacterial injection. Potassium iodide was used to block the uptake of radioactive iodine by the thyroid. Imaging of [^124I]-FIAU uptake by PET was obtained 4, 8, 12, 24, 48 and 72 h after tracer administration with 10 minute list acquisition at the 4 h and 8 h imaging time points, 15 minute at the 12 h time point, 30 minute at 24 h time point and 60 minute at the 48 h and 72 h time points. After tracer administration and between imaging time points, the animals were allowed to awake and maintain normal husbandry.

Setting [6] is: 4T1 tumors, without/prior to EcN injection.
Where [7] appears, read: tracer 16 h after EcN injection.
Where [8] appears, read: tracer 72 h after EcN injection.

Experimental findings from patent US8343509B2, “Methods and compositions for detection of bacteria and treatment of diseases and disorders” (priority 2008, dated 2013) are described below.

Molecules are shown by their SMILES. Read-outs that look alike come from different tables or passages of the source.

Take `CCc1cn([C@@H]2O[C@H](CO)[C@@H](O)[C@@H]2[18F])c(=O)[nH]c1=O` [[^18F]-FEAU, 2′-[^18F]fluoro-2′deoxy-1-β-D-arabinofuranosyl-5-ethyl-uracil]: the “enrichment of radioactivity within EcN-bacteria compared to the remaining LB-broth” value in data set [1] turned out to be 6.5 fold. Besides, the “tumor to organ ratio (liver, spleen, heart, lung) by tissue sampling” value with E. coli Nissle [2] is reported as “increased significantly”. The “enhancement of the tracer signal (tumor-to-organ ratios post-EcN vs pre-EcN)” value in the data set on E. coli Nissle [3] (16 h after EcN injection) is on record as about 1.6 fold; in the data set on E. coli Nissle [3] (72 h after EcN injection), about 2.1 fold. For the same molecule, the “tumor-to-organ ratio, heart” value with E. coli Nissle [3] (setting [6]) was determined as 1.4±0.3; in the data set on E. coli Nissle [3] (setting [7]) it was 2.1±0.6; in the data set with E. coli Nissle [3] (setting [8]) it was 2.9±0.8. Moreover, the “tumor-to-organ ratio, liver” value in the data set on E. coli Nissle [3] (setting [6]) is 1.4±0.3; in the data set with E. coli Nissle [3] (setting [7]) it was 2.0±0.7; with E. coli Nissle [3] (setting [8]), 2.4±0.8. The entries for the “tumor-to-organ ratio, muscle” value with E. coli Nissle [3] (setting [6]), in the data set on E. coli Nissle [3] (setting [7]) and with E. coli Nissle [3] (setting [8]) were 1.7±0.4, 2.6±0.8 and 3.0±1.3, respectively. For the same molecule, the uptake in tumors result with E. coli Nissle [3] (in the absence of EcN injection) is “much lower than that of [^18F]-FDG”. Moreover, the “accumulation in 4T1 xenografts” value with E. coli Nissle [4] was “near background levels”.

In the case of `O=c1[nH]c(=O)n([C@@H]2O[C@H](CO)[C@@H](O)[C@@H]2F)cc1I` [[^124I]-FIAU, 5-iodo-2′-fluoro-2′deoxy-1-β-D-arabino-furanosyl-uracil], the “background radioactivity in PET images” value in the data set with E. coli Nissle [5] (4 and 8 h acquisition time points) is “very high background radioactivity”. Further, the tumor/background ratios entry in the data set with E. coli Nissle [5] (48 and 72 h after tracer, EcN-treated animals) is listed as “greater than 5”. Besides, in the data set on E. coli Nissle [5] (tracer 72 h after bacterial injection), the “enrichment in the bacteria-treated tumors versus control tumors” value is given as 2.5 fold. Also, the “accumulation in 4T1 xenografts” value in the data set with E. coli Nissle [4] is “low levels above background”.

In the case of `OC[C@H]1OC(O)[C@H]([18F])[C@@H](O)[C@@H]1O` (stereo partly drawn) [[^18F]-FDG, 2′-[^18F]fluoro-2′deoxy-D-glucose], in data set [1], the “enrichment of radioactivity within EcN-bacteria compared to the remaining LB-broth” value was determined as 120 fold. For the same molecule, the “enhancement of the tracer signal (tumor-to-organ ratios post-EcN vs pre-EcN)” value is recorded as about 1.7 fold with E. coli Nissle [3] (16 h after EcN injection) and about 1.4 fold in the data set on E. coli Nissle [3] (72 h after EcN injection). Besides, the “tumor-to-organ ratio, heart” value in the data set with E. coli Nissle [3] (setting [6]) is 0.23±0.12; in the data set with E. coli Nissle [3] (setting [7]), 0.31±0.8; in the data set with E. coli Nissle [3] (setting [8]), 0.31±0.17. In addition, the “tumor-to-organ ratio, liver” value with E. coli Nissle [3] (setting [6]) is given as 1.6±0.4; in the data set with E. coli Nissle [3] (setting [7]) it was 2.6±0.5; in the data set on E. coli Nissle [3] (setting [8]), 2.2±0.8. Moreover, the “tumor-to-organ ratio, muscle” value is given as 3.3±0.7 in the data set on E. coli Nissle [3] (setting [6]), 5.4±1.1 with E. coli Nissle [3] (setting [7]) and 4.3±1.2 in the data set on E. coli Nissle [3] (setting [8]).
